Results: US5859032A, “Pyridine derivative, anti-ulcer drug, and antibacterial drug” (priority 1996, dated 1999)

Assays:
gastric mucosa = assay: PD: Gastric Mucosal Integrity Test; assay type: in vivo, rat (male CDj:SD); design: key: 5: Same as the control with no recognizable damage at all.; 4: Though a slight PD-decreasing tendency suggesting a slight possibility of mucosal damage is found, there is no problem.; 3: Though a weak decrease in PD and a possibility of a weak mucosal damage is recognized, there is no substantial problem.; 2: Medium degree of decrease in PD is found and a mucosal damage is recognized.; 1: Heavy degree of decrease in PD is found and a remarkable mucosal damage is recognized; details: rat, 100 mg/kg into chamber, 60 minutes
Method: PD: Gastric Mucosal Integrity Test
In this case, since the sample compound has a necrotizing effect, it is inappropriate as an anti-ulcer medicament.
Therefore, the gastric mucosal potential difference (PD), which reflects the integrity of the gastric mucosa, is measured so as to confirm that the sample compound has no damaging effect on gastric mucosa, which is toxicity at gastric mucosal level.
Male CDj:SD rats (7 to 8-week-old) were fasted overnight, but allowed free access to water, and then, under urethane anesthesia (1.25 g/kg, i.p.), fixed to a cork board on its back. The abdomen of each rat was incised, and a small incision was made in the forestomach. Then, the inside of the stomach was washed with physiological saline heated at 37° C. From the forestomach, along the greater curvature thereof, the stomach was incised without damaging blood vessels. After the height of the cork board was adjusted on a jack, the stomach was mounted on ex vivo chamber. The area of the gastric mucosa exposed to the inside of this chamber was 2.5 cm^2. The inside of the chamber was perfused with physiological saline warmed at 37° C. by micro tube pump. By using an agar bridge containing 3M KCl, the potential difference between the chamber and the abdominal cavity was measured by a PD meter. Here, the rectal temperature was measured to control the body temperature during the experiment. […] To a control, the vehicle was administered.
The change in PD during 60 minutes after the administration of 100 mg/kg of the sample compound was collectively studied and, with reference to the positive control, classified into 5 levels as follows:
5: Same as the control with no recognizable damage at all.
3: Though a weak decrease in PD and a possibility of a weak mucosal damage is recognized, there is no substantial problem.
2: Medium degree of decrease in PD is found and a mucosal damage is recognized.
1: Heavy degree of decrease in PD is found and a remarkable mucosal damage is recognized.

mice = details: mouse, in vivo
Method: AT: Single Dose Toxicity Pretest
Male Slc:ICR mice (5-week-old) were used. Each group has 3 to 5 mice and each mouse was fasted, but allowed free access to water, for 4 to 5 hours from 9 a.m. in the test day. Then, 2,000 mg/10 ml/kg of the sample compound dissolved or suspended in an aqueous solution of 0.5% sodium carboxymethyl cellulose was orally administered thereto. To a control, only the vehicle was administered. […] The body weight was measured before and after the fasting as well as at the same time everyday. The dead animals were immediately subjected to autopsy and their organs were observed microscopically. Also, the living animals were sacrificed with ether or carbon dioxide one week after the administration and then their organs were observed microscopically.
The toxicity at the single dose of 2,000 mg/kg of the sample compound was expressed as being classified into 5 levels.
5: Mortality rate is 0%; no toxicity is found at all both in behavior and organs.
4: Mortality rate is 0%; while no toxicity is found in organs, slight toxicity is observed in behavior and body weight increase.
3: While there is a dead animal (though not all the animals are dead), no toxicity is found in organs.
2: Regardless of whether there is a dead animal or not, toxicity is found in organs.
1: All the animals are dead.

[1] = tested on: stress ulcer formation (rats); assay: WIS: Restraint and Water Immersion Stress-Induced Ulcer Inhibition Test; assay type: in vivo, rat (male Crj:SD or Slc:SD); details: rat, 100 mg/kg, oral, 7 hours water immersion stress
Method: WIS: Restraint and Water Immersion Stress-Induced Ulcer Inhibition Test
The degree of inhibition of the stress ulcer formation is tested.
Male Crj:SD or Slc:SD rats (6 to 7-week-old) were fasted overnight, but allowed free access to water. Each group has 5 to 8 of these rats. […] To a control group, the vehicle was administered. 10 minutes later, the rats were placed in a stress cage and immersed to the level of xipfoid process in a water bath (21° C.) for 7 hours. At the end of the stress, the rats were sacrificed by inhalation of ether or carbon dioxide. Then, the stomach of each was removed, inflated by injecting 10 ml of 5% formalin neutral buffer solution, and immersed in 1% formalin neutral buffer solution for 30 minutes or more to be fixed. The stomach was incised along the greater curvature and then the length of each erosion in the glandular portion was determined under dissecting microscope. The sum of the length of erosions per stomach was defined as ulcer index (UI).
The effect obtained when 100 mg/kg of the sample compound had been administered was expressed as ulcer formation inhibitory rate (%) as follows:
ulcer formation inhibitory rate (%)=(1-(UI in sample group/UI in control

[2] = tested on: gastric acid secretion (pylorus-ligated, histamine-stimulated rats); assay: VOL, TAO: Acid Secretion Inhibition Test In Vivo; design: species or system rat (male Crj:Donryu); details: rat, 100 mg/kg, oral; histamine 30 mg/kg s.c.
Method: VOL, TAO: Acid Secretion Inhibition Test In Vivo
Inhibitory effect on acid secretion in vivo is confirmed.
Male Crj:Donryu rats (7-week-old) were fasted overnight but allowed free access to water. In each group, 8 to 10 of these rats were used under urethane anesthesia (1.25 g/kg). […] 30 minutes later, the abdomen of each was incised and the pylorus was ligated. 30 minutes after the ligation, 30 mg/kg of histamine dissolved in physiological saline was subcutaneously administered and, 3 hours thereafter, the rat was sacrificed with carbon dioxide. Immediately thereafter, each stomach was removed and the gastric contents were collected and each volume was determined. The total acid output was determined by titration of the gastric juice with 0.1N NaOH.
With respect to the gastric juice volume (VOL) and the total acid output (TAO), the effects obtained when 100 mg/kg of the sample compound had been administered were expressed as their respective inhibitory rates (%) as follows:
each inhibitory rate (%)=(1-(value in sample group/value in control

Row | SMILES | PD: change in gastric mucosal potential difference (5 levels) (gastric mucosa) | AT: toxicity at the single dose (5 levels) (mice) | WIS: ulcer formation inhibitory rate [1] [%] | TAO: total acid output inhibitory rate [2] [%] | VOL: gastric juice volume inhibitory rate [2] [%]
1 | CC(C)=CCC/C(C)=C/COc1ccc(C(=O)NCc2ccncc2)cc1 [Example 3, 4-(4-geranyloxybenzoylaminomethyl)pyridine] | 3 | 5 | 61 |  | 
2 | COc1ccc(SCCNC(=O)c2ccc(OC/C=C(\C)CCC=C(C)C)cc2)nc1 [Example 11, 2-[2-(4-geranyloxybenzoylamino)ethylthio]-5-methoxypyridine] | 4 | 5 | 61 |  | 
3 | CC(C)=CCC/C(C)=C/COc1ccc(C(=O)NCCc2ccncc2)cc1 [Example 2, 4-[2-(4-geranyloxybenzoylamino)ethyl]pyridine] | 3 | 5 | 77 | 25 | 17
4 | COc1ccc(NCCNC(=O)c2ccc(OC/C=C(\C)CCC=C(C)C)cc2)nc1 [Example 8, 2-[2-(4-geranyloxybenzoylamino)ethylamino]-5-methoxypyridine] | 5 | 5 | 55 | -7 | 7
5 | CC(C)=CCC/C(C)=C/COc1ccc(C(=O)NCCNc2cc(C)cc(C)n2)cc1 [Example 10, 2,4-dimethyl-6-[2-(4-geranyloxybenzoylamino)ethylamino]pyridine] | 3 | 4 | 55 |  | 
6 | CC(C)=CCOc1ccc(OCC=C(C)C)c(C(=O)NCCc2ccncc2)c1 [Example 6, 4-[2-(2,5-diprenyloxybenzoylamino)ethyl]pyridine] | 5 |  | 48 |  | 
7 | CC(C)=CCC/C(C)=C/COc1ccc(C(=O)NCCc2ccccn2)cc1 [Example 1, 2-[2-(4-geranyloxybenzoylamino)ethyl]pyridine] | 5 | 5 | 50 | 8 | 4
8 | CC(C)=CCC/C(C)=C/COc1ccc(C(=O)Nc2cccnc2)cc1 [Example 4, 3-(4-geranyloxybenzoylamino)pyridine] | 5 |  | 39 |  | 
9 | CC(C)=CCC/C(C)=C/COc1ccc(C(=O)NCCNc2cccnc2)cc1 [Example 7, 3-[2-(4-geranyloxybenzoylamino)ethylamino]pyridine] | 3 |  | 81 |  | 
10 | CC(C)=CCC/C(C)=C/COc1ccc(C(=O)NCC(=O)Nc2ccccn2)cc1 [Example 13, 2-[2-(4-geranyloxybenzoylamino)acetylamino]pyridine] | 5 | 5 | 33 |  | 
